This passage reports IC50 results from PMC2824046 (Journal of the American Chemical Society, 2010).

The target of the experiment is protein phosphatase 2A (PP2A). Put plainly: PP2A inhibition assay. It counts as biochemical.

For `CCCCC/C=C/C=C\C=C/[C@H](O)[C@H](C)[C@H](C/C=C/[C@@H]1OC(=O)C=C[C@@H]1O)OP(=O)(O)O` [compound 2, phostriecin], the IC50 (as a rule, the concentration needed to halve the response being measured) is 0.72 µM.
